Test results: US11440907B1 (Merck Patent GmbH, priority 2018, dated 2022)

Assays:
Type in all cases: cell-based
[1] = system: NCI-H929 (Multiple myeloma cells); test: Cell viability (ATPLite) in NCI-H929; settings: Homo sapiens, 96 hours
Procedure: (§1) Cells were removed from liquid nitrogen storage, thawed and expanded in appropriate growth media. Once expanded, cells were seeded in 384-well tissue culture treated plates at 500 cells per well. After 24 hours, cells were treated for either 0 hours or treated for 96 hours with a testing compound (at the concentrations of 100 nM and 2 uM). At the end of either 0 hours or 96 hours, cell status was analyzed using ATPLite (Perkin Elmer) to assess the biological response of cells to the testing compound.

[2] = system: DU4475 (breast cancer cells); test: Cell viability (ATPLite) in DU4475; settings: Homo sapiens, DU-4475, 96 hours
Procedure: as §1

[3] = system: XBP1(u)-luciferase splicing reporter in HepG2 hepatoma cells; test: HepG2 XBP1 reporter assay (XBP1(u)-Luc); settings: Homo sapiens, 6 hours after compound addition; for IC50: Table 4; for EC50: Table 3, read-out: XBP1-luc HepG2 1 EC50
[4] = system: intracellular calcium flux in Colo-205 cells; test: Calcium flux assay (FLIPR Calcium 5 Assay Kit, FLIPR3); settings: Homo sapiens, 0.6 h, calcium flux measured over 36 minutes, read-out: Colo 205 Calcium Flux assay 384w Boston Ca assay FLIPR3 Colo EC50
Procedure: Compounds described herein induced ER stress by causing intracellular calcium flux. Calcium flux was measured in Colo-205 cells using the FLIPR® Calcium 5 Assay Kit according to manufacturer's protocol (Molecular Devices, Cat. #R8186) on a FLIPR3 system (Molecular Devices). Calcium flux is measured over 36 minutes. The Colo-205 calcium flux assay data are summarized in Table 3: A<0.6 μM; 0.6 μM≤B<2.0 μM; 2.0 μM≤C<10.0 μM; D≥10.0 μM.

[5] = system: β-catenin-TCF-mediated reporter transcription activity in Colo 205 cells; test: Colo 205 reporter assay (TCF/LEF promoter-driven firefly luciferase); settings: Homo sapiens; Colo 205 TCF/LEF luciferase reporter, 5 hours after compound addition, 384 well; read-out: Colo205 IC50

IC50 [1] | IC50 [2] | IC50 [3] | EC50 [4] | IC50 [5] | EC50 [3] | SMILES
< 1000 nM | < 1000 nM | < 600 nM | – | – | – | COc1cc(Cl)c([C@H]2COCCCN2c2cc(C)nc(N)n2)cc1O [C-36]
1000 to 10000 nM | 1000 to 10000 nM | ≥ 5000 nM | – | – | – | Cc1cc(N2CCCOCC2c2cc(Cl)c(Cl)cc2Cl)nc(N)n1 (centres unmarked) [C-34]
1000 to 10000 nM | < 1000 nM | 600 to 2000 nM | – | – | – | COc1cc(Cl)c(C2COCCCN2c2cc(C)nc(N)n2)cc1Cl (centres unmarked) [C-19]
1000 to 10000 nM | < 1000 nM | 600 to 2000 nM | – | – | – | Cc1cc(N2CCCOCC2c2cc(CS(C)(=O)=O)ccc2Cl)nc(N)n1 (centres unmarked) [C-12, 4-[3-(2-Chloro-5-methanesulfonylmethyl-phenyl)-[1,4]oxazepan-4-yl]-6-methyl-pyrimidin-2-ylamine]
< 1000 nM | < 1000 nM | 600 to 2000 nM | – | – | – | COc1cc(Cl)c(C2COCCCN2c2cc(C)nc(N)n2)cc1OC (centres unmarked) [C-15]
< 1000 nM | < 1000 nM | < 600 nM | – | – | – | Cc1cc(N2CCCOCC2c2cc3c(cc2Cl)OCC(=O)N3)nc(N)n1 (centres unmarked) [C-5]
< 1000 nM | < 1000 nM | < 600 nM | – | – | – | Cc1cc(N2CCCOCC2c2cc3c(cc2Cl)NCC3)nc(N)n1 (centres unmarked) [C-1]
1000 to 10000 nM | < 1000 nM | < 600 nM | – | – | – | Cc1cc(N2CCCOCC2c2cc(C(F)(F)F)c(N)cc2Cl)nc(N)n1 (centres unmarked) [C-31]
< 1000 nM | < 1000 nM | < 600 nM | – | – | – | Cc1cc(N2CCCOCC2c2cc3c(cc2Cl)NC(=O)CO3)nc(N)n1 (centres unmarked) [C-35]
≥ 25000 nM | ≥ 25000 nM | – | – | – | – | Cc1cc(N2CCCOCC2c2cc(O)c(O)cc2Cl)nc(N)n1 (centres unmarked) [C-22]
1000 to 10000 nM | 1000 to 10000 nM | 600 to 2000 nM | – | – | – | Cc1cc(N2CCCOCC2c2cc(F)c(O)cc2Cl)nc(N)n1 (centres unmarked) [C-30]
≥ 25000 nM | ≥ 25000 nM | – | – | – | – | Cc1cc(N2CCCOC[C@H]2c2ccc(S(C)(=O)=O)cc2Cl)nc(N)n1 [C-155]
< 1000 nM | < 1000 nM | < 600 nM | – | – | – | Cc1cc(N2CCCOCC2c2cc3c(cc2Cl)N(C)CC3)nc(N)n1 (centres unmarked) [C-32]
< 1000 nM | < 1000 nM | – | – | – | – | Cc1cc(N2CCCOCC2c2cc3c(cc2Cl)CCN3)nc(N)n1 (centres unmarked) [C-37]
1000 to 10000 nM | < 1000 nM | 600 to 2000 nM | – | – | – | Cc1cc(N2CCCOCC2c2cc3c(cc2Cl)OCCO3)nc(N)n1 (centres unmarked) [C-6]
< 1000 nM | < 1000 nM | < 600 nM | – | – | – | Cc1cc(N2CCCOCC2c2cc(C)c(N)cc2Cl)nc(N)n1 (centres unmarked) [C-16]
1000 to 10000 nM | < 1000 nM | < 600 nM | – | – | – | Cc1cc(N2CCCOCC2c2cc3c(cc2Cl)OCCCO3)nc(N)n1 (centres unmarked) [C-13]
1000 to 10000 nM | 1000 to 10000 nM | 600 to 2000 nM | – | – | – | Cc1cc(N2CCCOCC2c2cc(F)c(F)cc2Cl)nc(N)n1 (centres unmarked) [C-4]
1000 to 10000 nM | 1000 to 10000 nM | 600 to 2000 nM | – | – | – | Cc1cc(N2CCCOCC2c2cc(F)c(C)cc2Cl)nc(N)n1 (centres unmarked) [C-2]
1000 to 10000 nM | 1000 to 10000 nM | 600 to 2000 nM | – | – | – | Cc1cc(N2CCCOCC2c2cc(Cl)c(C)cc2Cl)nc(N)n1 (centres unmarked) [C-3]
1000 to 10000 nM | < 1000 nM | < 600 nM | – | – | – | CCOc1cc(Cl)c(C2COCCCN2c2cc(C)nc(N)n2)cc1OCC (centres unmarked) [C-40]
1000 to 10000 nM | < 1000 nM | < 600 nM | – | – | – | COc1cc(C2COCCCN2c2cc(C)nc(N)n2)c(Cl)cc1OC(C)C (centres unmarked) [C-24]
1000 to 10000 nM | < 1000 nM | 600 to 2000 nM | – | – | – | COc1cc(C2COCCCN2c2cc(C)nc(N)n2)c(Cl)cc1O (centres unmarked) [C-14]
1000 to 10000 nM | 1000 to 10000 nM | – | – | – | – | Cc1cc(N2CCCOCC2c2cc(F)c(-c3cccnc3)cc2Cl)nc(N)n1 (centres unmarked) [C-33]

IC50 [1] | IC50 [2] | IC50 [3] | EC50 [4] | IC50 [5] | EC50 [3] | SMILES
< 1000 nM | < 1000 nM | < 600 nM | – | – | – | Cc1cc(N2CCCOCC2c2cc3c(cc2Cl)n(C)c(=O)n3C)nc(N)n1 (centres unmarked) [C-20]
< 1000 nM | < 1000 nM | < 600 nM | – | – | – | Cc1cc(N2CCCOC[C@@H]2c2ccc(NC3COC3)cc2Cl)nc(N)n1 [C-152]
< 1000 nM | < 1000 nM | 600 to 2000 nM | – | – | – | Cc1cc(N2CCCOCC2c2ccc(OC[C@@H](O)CO)cc2Cl)nc(N)n1 (stereo partly drawn) [C-42, (S)-3-{4-[4-(2-Amino-6-methyl-pyrimidin-4-yl)-[1,4]oxazepan-3-yl]-3-chloro-phenoxy}-propane-1,2-diol]
– | – | – | < 600 nM | 300 to 1000 nM | 600 to 2000 nM | Cc1cc(N2CCCOCC2c2cc(Br)ccc2Cl)nc(N)n1 (centres unmarked) [I-295]
– | – | – | < 600 nM | 300 to 1000 nM | 600 to 2000 nM | Cc1cc(N2CCCOCC2c2ccc(S(=O)(=O)C3CCC3)cc2Cl)nc(N)n1 (centres unmarked) [I-222, 4-(3-(2-chloro-4-(cyclobutylsulfonyl)phenyl)-1,4-oxazepan-4-yl)-6-methylpyrimidin-2-amine]
– | – | – | < 600 nM | 300 to 1000 nM | 600 to 2000 nM | C=C(C)c1ccc(C2COCCCN2c2cc(C)nc(N)n2)c(Cl)c1 (centres unmarked) [I-299]
1000 to 10000 nM | 1000 to 10000 nM | 2000 to 5000 nM | – | – | – | Cc1cc(N2CCCOCC2c2cc(F)c(Cl)cc2Cl)nc(N)n1 (centres unmarked) [C-18]
1000 to 10000 nM | 1000 to 10000 nM | 600 to 2000 nM | – | – | – | Cc1cc(N2CCCOCC2c2cc(Cl)c(O)cc2Cl)nc(N)n1 (centres unmarked) [C-7]
– | – | – | 600 to 2000 nM | 300 to 1000 nM | < 600 nM | CCc1cc(N2CCCCCC2c2ccccc2Cl)nc(N)n1 (racemic) [I-17, (+/−)-4-(2-(2-chlorophenyl)azepan-1-yl)-6-ethylpyrimidin-2-amine]
< 1000 nM | < 1000 nM | < 600 nM | – | – | – | CCOc1cc(Cl)c(C2COCCCN2c2cc(C)nc(N)n2)cc1OC (centres unmarked) [C-23]
– | – | – | < 600 nM | < 300 nM | 2000 to 5000 nM | Cc1cc(N2CCCOCC2c2ccc(C(N)=O)cc2Cl)nc(N)n1 (centres unmarked) [I-298]
– | – | – | < 600 nM | 300 to 1000 nM | 600 to 2000 nM | COc1cc(F)ccc1C1CCCCCN1c1cc(C)nc(N)n1 (centres unmarked) [I-22, 4-(2-(4-fluoro-2-methoxyphenyl)azepan-1-yl)-6-methylpyrimidin-2-amine]
< 1000 nM | < 1000 nM | < 600 nM | – | – | – | CCNc1cc(Cl)c(C2COCCCN2c2cc(C)nc(N)n2)cc1C (centres unmarked) [C-21]
– | – | – | < 600 nM | 300 to 1000 nM | < 600 nM | Cc1cc(N2CCCOC[C@@H]2c2ccc(NC(=O)C3(O)CC3)cc2Cl)nc(N)n1 (single isomer, unassigned) [I-197]
< 1000 nM | < 1000 nM | 600 to 2000 nM | – | – | – | Cc1cc(N2CCCOCC2c2ccc(CS(C)(=O)=O)cc2F)nc(N)n1 (centres unmarked) [C-11, 4-[3-(2-Fluoro-4-methanesulfonylmethyl-phenyl)-[1,4]oxazepan-4-yl]-6-methyl-pyrimidin-2-ylamine]
– | – | – | < 600 nM | 300 to 1000 nM | < 600 nM | Cc1cc(N2CCCOC[C@@H]2c2ccc(S(C)(=O)=O)cc2Cl)nc(N)n1 (single isomer, unassigned) [I-68]
– | – | – | < 600 nM | 300 to 1000 nM | < 600 nM | Cc1cc(N2CCCOCC2c2cc(N3CCOCC3)ccc2Cl)nc(N)n1 (racemic) [I-226, (+/−)-4-(3-(2-chloro-5-morpholinophenyl)-1,4-oxazepan-4-yl)-6-methylpyrimidin-2-amine]
1000 to 10000 nM | 1000 to 10000 nM | 2000 to 5000 nM | – | – | – | Cc1cc(N2CCCOCC2c2cc(C)c(F)cc2Cl)nc(N)n1 (centres unmarked) [C-38]
– | – | – | < 600 nM | < 300 nM | < 600 nM | Cc1cc(N2CCCOCC2c2ccc(N3CCCS3(=O)=O)cc2Cl)nc(N)n1 (racemic) [I-193, (+/−)-4-[3-[2-chloro-4-(1,1-dioxo-1,2-thiazolidin-2-yl)phenyl]-1,4-oxazepan-4-yl]-6-methyl-pyrimidin-2-amine]
– | – | – | < 600 nM | < 300 nM | < 600 nM | CNc1ccc(Cl)c([C@H]2COCCCN2c2cc(C)nc(N)n2)c1 (single isomer, unassigned) [I-178, 4-[3-[2-chloro-5-(methylamino)phenyl]-1,4-oxazepan-4-yl]-6-methyl-pyrimidin-2-amine]
– | – | – | < 600 nM | < 300 nM | < 600 nM | COC1CN(c2ccc([C@H]3COCCCN3c3cc(C)nc(N)n3)c(Cl)c2)C1 [I-217, 4-[(3S)-3-[2-chloro-4-(3-methoxyazetidin-1-yl)phenyl]-1,4-oxazepan-4-yl]-6-methyl-pyrimidin-2-amine]
– | – | – | 600 to 2000 nM | 300 to 1000 nM | ≥ 5000 nM | Cc1cc(N2CCCOCC2c2ccc(P(C)(C)=O)cc2Cl)nc(N)n1 (racemic) [I-202, (+/−)-4-[3-(2-chloro-4-dimethylphosphoryl-phenyl)-1,4-oxazepan-4-yl]-6-methyl-pyrimidin-2-amine]
– | – | – | < 600 nM | < 300 nM | < 600 nM | Cc1cc(N2CCCOC[C@@H]2c2ccc(NC(=O)C3CC3)cc2Cl)nc(N)n1 (single isomer, unassigned) [I-207]
– | – | – | < 600 nM | 300 to 1000 nM | 2000 to 5000 nM | Cc1cc(N2CCCOCC2c2cc(NC(=O)C3CCO3)ccc2Cl)nc(N)n1 (racemic) [I-184, (+/−)-N-[3-[4-(2-amino-6-methyl-pyrimidin-4-yl)-1,4-oxazepan-3-yl]-4-chloro-phenyl]oxetane-2-carboxamide]
